The text below walks through data of PubChem BioAssay (NCI).

Among the test systems are BT-549 breast; DU-145 prostate; KM12 colon; LOX IMVI melanoma; MCF7 breast; MDA-MB-231 breast; OVCAR-5 ovarian; SF-539 CNS; SK-MEL-28 melanoma; SR leukemia.
Holding throughout (assay): NCI tumour cell line growth inhibition, 48 h

Values joined by “and” are separate entries in the source; they are usually repeats but may differ in a detail not shown here. Equal entries are not always repeated.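 Compound exposure: 48 hours, 5 concentrations, 96-well plates. The concentration for 50% growth inhibition is given as GI50. TGI marks complete inhibition of growth.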

As for `O=C(/C=C/c1ccccc1Cl)c1ccc(O)cc1`, the GI50 was 2.3 µM with BT-549 breast; 4.16 µM with DU-145 prostate; 3.57 µM with KM12 colon; 3.09 µM in the assay on LOX IMVI melanoma; 2.45 µM with MCF7 breast; 13.6 µM in the assay with MDA-MB-231 breast. The GI50 in the assay on OVCAR-5 ovarian is 19.8 µM; with SF-539 CNS, 5.22 µM; in the assay with SK-MEL-28 melanoma it was 11 µM; in the assay with SR leukemia, 2.82 µM. Moreover, the TGI in the assay with BT-549 breast turned out to be 6.76 µM; with DU-145 prostate, 13.1 µM; with KM12 colon it was 11.6 µM; in the assay on LOX IMVI melanoma it was 10.3 µM; in the assay on MCF7 breast it was 7.54 µM; in the assay on MDA-MB-231 breast it was 31 µM. The TGI in the assay with OVCAR-5 ovarian was 37.4 µM; in the assay on SF-539 CNS, 12.2 µM; in the assay on SK-MEL-28 melanoma it was 23 µM; in the assay with SR leukemia it was > 24.4 µM.
With `COc1ccc(Nc2nc(NCc3ccccc3)c3ccccc3n2)cc1`, the GI50 is 4.57 µM in the assay on BT-549 breast; 8.75 µM with DU-145 prostate; 3.81 µM in the assay with KM12 colon; 1.99 µM in the assay on LOX IMVI melanoma; 1.81 µM in the assay on MCF7 breast; 4.3 µM in the assay with MDA-MB-231 breast. For the same compound, the GI50 with OVCAR-5 ovarian was 10.1 µM; in the assay with SF-539 CNS, 9.52 µM; in the assay with SK-MEL-28 melanoma it was 2.03 µM; in the assay with SR leukemia it was 2.19 µM. The TGI with BT-549 breast was 18.2 µM; in the assay with DU-145 prostate it was 21.9 µM; in the assay on KM12 colon, 13.8 µM; in the assay with LOX IMVI melanoma, 3.92 µM; with MCF7 breast it was 3.63 µM; with MDA-MB-231 breast, 16.9 µM. The TGI with OVCAR-5 ovarian was 28 µM; with SF-539 CNS, 23.9 µM; in the assay on SK-MEL-28 melanoma, 4.1 µM; with SR leukemia it was 6.01 µM.
Take `CCNC(=O)Nc1ccc(-c2nc3c(c(N4CCOC[C@@H]4C)n2)CCN(C2COC2)C3)cc1`: the GI50 is 0.175 µM and 0.115 µM in the assay with BT-549 breast; 0.562 µM and 0.435 µM in the assay with DU-145 prostate; 0.507 µM and 0.403 µM in the assay on KM12 colon; 0.411 µM and 0.329 µM with LOX IMVI melanoma; 0.121 µM and 0.115 µM in the assay with MCF7 breast; 0.392 µM and 0.267 µM with MDA-MB-231 breast. Also, the GI50 in the assay with OVCAR-5 ovarian is 0.302 µM and 0.384 µM; with SF-539 CNS, 0.247 µM and 0.336 µM; in the assay with SK-MEL-28 melanoma, 0.199 µM and 0.157 µM; with SR leukemia, 0.439 µM and 0.416 µM. Moreover, the TGI in the assay on BT-549 breast is 1.96 µM and 1.79 µM; in the assay on DU-145 prostate, > 100 µM; with KM12 colon, > 100 µM; in the assay on LOX IMVI melanoma it was > 100 µM; in the assay with MCF7 breast, > 100 µM; with MDA-MB-231 breast, > 48.2 µM. Moreover, the TGI is > 37.1 µM in the assay with OVCAR-5 ovarian; 1.85 µM and 3.53 µM in the assay with SF-539 CNS; 5.39 µM and 2.24 µM in the assay with SK-MEL-28 melanoma; > 100 µM in the assay with SR leukemia.
For the compound `Cc1ccccc1NC(=O)N/C(N)=N/c1nc2ccccc2s1`, the GI50 is 0.128 µM with BT-549 breast; 0.0833 µM with DU-145 prostate; 0.0399 µM in the assay with KM12 colon; 0.0759 µM with LOX IMVI melanoma; 0.0359 µM with MCF7 breast; 0.892 µM with MDA-MB-231 breast. Also, the GI50 in the assay on OVCAR-5 ovarian is 0.488 µM; with SF-539 CNS, 0.041 µM; in the assay on SK-MEL-28 melanoma, 3.37 µM; in the assay with SR leukemia, 0.0392 µM. For the same compound, the TGI with DU-145 prostate, with KM12 colon, in the assay with LOX IMVI melanoma, in the assay with MCF7 breast, with MDA-MB-231 breast and in the assay on OVCAR-5 ovarian was > 100 µM in each case. The TGI in the assay with SF-539 CNS was 0.725 µM; with SK-MEL-28 melanoma it was > 100 µM; with SR leukemia it was > 100 µM.
